Experimental data taken from patent US8809310B2, “Use of rasagiline for the treatment of multiple system atrophy” (priority 2006, dated 2014).
Read-outs that look alike come from different tables or passages of the source.

What was measured:
[1] = test system: (PLP) α-synuclein transgenic mice
Experimental: Neuropathological examination of the brains was performed after transcardial perfusion of 4% paraformaldehyde (PFA) under deep thiopental anesthesia. Brains were quickly removed, postfixed in the same fixative for 1 hour at 4° C., and then kept in 25% sucrose solution until they sunk. The brains were slowly frozen in with 2-methylbutan and kept at −80° C. until processing. Serial sections throughout the whole brain were cut on a freezing microtome (Leica, Nussloch, Germany).
(§1) Sections underwent the following immunohistochemical stainings: tyrosinehydroxylase antibody (Sigma) used to visualize dopaminergic neurons in SNc, dopamine and cyclic adenosine 3′,5′-monophosphate-regulated phosphoprotein 32 (DARPP-32)(New York Hospital-Cornell Medical Centre) used to visualize medium sized spiny neurons in striatum and Purkinje cells in cerebellar cortex, Glial Fibrillary Acidic Protein (GFAP)(Roche Diagnostics GmBH) used to visualize astroglial reaction, CD11b (Serotec) used to visualize microglial reaction and Bcl-2, Bcl-X1 and Bax apoptic/anti-apoptotic markers. One full series was stained with cresyl violet.
(§2) The following antibodies were used in this study: monoclonal anti-DARPP-32 (1:2000), monoclonal anti-TH (Sigma, St. Louis, Mo., 1:500), monoclonal anti-GFAP (Roche, Vienna, Austria 1:100), monoclonal anti-CD11b (Serotec, Oxford, UK, 1:100), polyclonal anti-activated capase 3 (Transduction Laboratories, Lexington, Ky., 1:200), monoclonal anti-Bax (Santa Cruz Biotechnology, 1:100), monoclonal anti-Bc12 (Santa Cruz Biotechnology, 1:100), and monoclonal anti-BclX (Chemicon, Temecula, Calif., 1:100). Secondary antibodies were biotinylated horse anti-mouse IgG, goat anti-rat IgG, or goat anti-rabbit IgG (Vector, Burlingame, Calif.). Immunohistochemical reaction was developed with 3,3′-diaminobenzidine.
All morphometric analyses were done blinded to the treatment of the animal's observer. Stereology was applied using a computer-assisted image analysis system (Nikon E-800 microscope, Nikon digital camera DXM 1200; Stereo Investigator Software, MicroBrightField Europe e.K., Magdeburg, Germany). […] Purkinje cells in the cerebellum and glial reaction throughout the entire brain are analyzed to the Paxinos and Franklin mouse brain atlas (1997, Academic Press, San Diego). Purkinje cells were counted in a region outlined to include only the Purkinje cell layer (German et al., Degeneration of neurons and glia in the Niemann-Pick C mouse is unrelated to the low-density lipoprotein receptor. Neuroscience, 2001; 105:999-1005).

[2] = test system: (PLP) α-synuclein transgenic mice; details: MSA mice (3-NP +), N=10
Source text: A suitable model for MSA is described by Stefanova et al. (Am. J. Pathol. March 2005, 166(3):869-76; Trends Neurosci. 2005, 28(9):501-6). This model acts by inducing oxidative stress in transgenic mice with oligodendroglial α-synuclein expression. […] The selective neuronal cell death pattern typical of MSA is achieved by combining mitochondrial inhibition by 3-nitropropionic acid (3-NP).
A total of 36 (PLP) α-synuclein transgenic mice over 6 months of age were used.
Chronic intoxication with 3-NP was done according to a previously used paradigm pathiology (i.e. 4×10 mg/kg, 4×20 mg/kg, 4×40 mg/kg, 4×50 mg/kg intraperitoneal injections every 12th hour for a period of two weeks) to model MSA pathology.
The mice were further divided into groups as follows: Control group (saline tested, n=10), low dose rasagiline group (0.6 mg/kg; n=10) and high dose rasagiline group ([…]; n=10). Rasagiline was delivered subcutaneously every 24 hours starting 24 hours one week before the intoxication with 3-NP and lasting for an additional week, i.e., for a total period of 4 weeks.

[3] = test system: (PLP) α-synuclein transgenic mice; details: mouse, in vivo
Source text: as §1, §2

[4] = test system: early Parkinson's disease patients; details: rasagiline-treated subjects; cited from earlier work
[5] = target: MAO-B (Mus musculus, UniProt Q8BW75); details: for MAO-B activity (mean dpm ± SD): MSA mice, brain homogenate, 14C-PEA 10 μM, end of experiment
MAO-B, sequence (Q8BW75 whole entry): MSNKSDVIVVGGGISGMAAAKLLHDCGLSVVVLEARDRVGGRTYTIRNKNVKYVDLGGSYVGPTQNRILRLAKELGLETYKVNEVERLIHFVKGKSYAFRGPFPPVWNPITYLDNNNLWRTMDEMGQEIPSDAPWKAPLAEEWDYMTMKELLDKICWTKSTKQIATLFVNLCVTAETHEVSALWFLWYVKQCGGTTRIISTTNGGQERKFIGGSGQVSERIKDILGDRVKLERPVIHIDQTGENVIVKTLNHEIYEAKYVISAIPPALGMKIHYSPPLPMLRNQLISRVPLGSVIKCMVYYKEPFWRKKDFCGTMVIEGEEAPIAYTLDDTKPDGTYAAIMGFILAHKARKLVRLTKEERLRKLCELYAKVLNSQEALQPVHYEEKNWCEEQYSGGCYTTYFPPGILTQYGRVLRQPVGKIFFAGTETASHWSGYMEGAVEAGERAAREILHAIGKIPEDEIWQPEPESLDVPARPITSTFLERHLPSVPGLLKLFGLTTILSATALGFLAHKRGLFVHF
Experimental: (§3) Efficacy of Rasagiline treatment was determined by biochemical measurement of the inhibition of MAO-A and MAO-B activity in the different treatment groups. Two mice per group were sacrificed under deep thiopental anesthesia by cervical […]. Brains were immediately removed and snap-frozen in liquid nitrogen and further stored at −80° C. Tissue homogenates were preincubated with clorgyline or deprenyl in order to inhibit MAO-A or MAO-B respectively. Incubation was carried on with 14C-labeled PEA (10 μM) for MAO-B determination and 14C-HT (100 μM) for MAO-A determination. Reaction was stopped by acidification and labeled metabolites were extracted into toluene/ethyl acetate and counted by beta-counter.

[6] = target: MAO-A (Mus musculus, UniProt Q64133); details: for MAO-A activity (mean dpm ± SD): MSA mice, brain homogenate, 14C-HT 100 μM, end of experiment
MAO-A, sequence (Q64133 whole entry): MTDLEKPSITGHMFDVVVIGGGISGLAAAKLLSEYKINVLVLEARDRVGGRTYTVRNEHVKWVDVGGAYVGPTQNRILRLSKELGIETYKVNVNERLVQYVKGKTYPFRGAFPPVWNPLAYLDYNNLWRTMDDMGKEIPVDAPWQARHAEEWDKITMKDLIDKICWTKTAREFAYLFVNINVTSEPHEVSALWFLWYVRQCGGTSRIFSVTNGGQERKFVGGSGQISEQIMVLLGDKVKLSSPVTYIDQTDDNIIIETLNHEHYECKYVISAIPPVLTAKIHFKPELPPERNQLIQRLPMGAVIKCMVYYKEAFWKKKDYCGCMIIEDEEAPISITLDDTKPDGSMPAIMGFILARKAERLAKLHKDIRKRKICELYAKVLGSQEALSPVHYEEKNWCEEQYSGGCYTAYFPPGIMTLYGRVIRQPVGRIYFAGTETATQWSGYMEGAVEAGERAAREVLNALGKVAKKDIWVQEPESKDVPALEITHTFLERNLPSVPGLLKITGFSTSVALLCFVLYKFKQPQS
Experimental: as §3

[7] = test system: (PLP) α-synuclein transgenic mice; remark: listed apart in the source
Experimental: The stride length of the hindlimbs of the mice was measured at baseline and before sacrificing them after a habituation to the test for 3 days before its performance. The limbs of each animal were wetted with a non-toxic food color and the mouse was let to run on a strip of paper (42 cm long, 4.5 cm wide) down a bright corridor towards a dark goal box. After four runs, the stride length of the forelimbs and the hindlimbs on each side was measured, excluding the beginning (7 cm) and the end (7 cm) of the run. The mean stride length for was determined.
Stride length test was performed on day 18-19 and day 27-28 after first 3-NP intoxication.

[8] = test system: (PLP) α-synuclein transgenic mice; details: daily rating, whole experimental period
Experimental: Behavioral tests were performed blindly to the treatment status according to the following procedures and described in Fernagut et al.: clinical scale, stride length, spontaneous locomotor activity.
The groups were evaluated daily during the whole experimental period with a general motor score according to a previously published rating scale.
A previously described rating scale (Fernagut et al., Subacute systemic 3-nitropropionic acid intoxication induces a distinct motor disorder in adult C57B1/6 mice: Behavioural and histopathological characterization, Neuroscience 2002; 114:1005-17) was used for evaluation of hindlimb clasping, general locomotor activity, hindlimb dystonia, truncal dystonia and postural challenge response (0, normal; 1 slightly disturbed, and 2 markedly disabled). […] A total daily score per animal for each session was determined as well as a total sum score per animal per group for the whole testing period.

[9] = test system: (PLP) α-synuclein transgenic mice; details: any of the time points studied (day 16, day 26)
Experimental: To test the locomotor activity of the mice we applied the Flex Field Activity System, (San Diego Instruments, San Diego, Calif.) which allows monitoring and real-time counting of horizontal and vertical locomotor activity by 544 photo-beam channels. Mice were placed in the center of the open field (40.5×40.5×36.5 cm) and tested for a 15 min period always at the same time of the day (5.00 p.m.). The tests were performed in a dark room that was completely isolated from external noises and light during the test period. The sum of counts in the horizontal and vertical plane at day 16 and on day 26 of the experiment was further analyzed.

[10] = test system: (PLP) α-synuclein transgenic mice; details: fourth week (day 25)
Experimental: The pole test (Id.; and Matsuura et al., Pole test is a useful method for evaluating the mouse movement disorder caused by striatal dopamine depletion, Journal of Neuroscience Methods 1997; 73:45-8) was performed on day 17 and day 25 of the experiment. Each mouse was habituated to the test the day before. A wooden vertical pole with rough surface, 1 cm wide and 50 cm high was applied. The mouse was placed with the head up at the top of the pole and the time for turning downwards (Tturn) as well as the total time for climbing down the pole until the mouse reached the floor with the four paws (Ttotal) was taken in 5 trials. The best performance of all the five trials was kept for the statistical analysis (Fernagut et al., In vivo models of multiple system atrophy, Mov Disord. 2005; 20 Suppl 12:S57-S63). If a mouse was unable to perform the test, a default value of 120 s was taken into account.

[11] = 2.5 mg/kg daily for 4 weeks, without reaching neuronal numbers of healthy controls

Structure (SMILES): C#CCN[C@@H]1CCc2ccccc21 [Rasagiline, R(+)-N-propargyl-1-aminoindan]
- protection of Purkinje cells [1, 11]: partial protection
- protection of neurons of the inferior olives [1, 11]: partial protection
- protection of pontine nuclei against 3-NP intoxication ([1]; mouse, in vivo): completely protected
- loss of striatal DARPP-32-immunoreactive medium spiny neurons ([1]; striatum, did not reach levels of non-intoxicated controls): partially prevented
- loss of TH-immunopositive neurons in SNc ([1]; substantia nigra pars compacta): completely protected
- Mortality N (%) ([2]; Rasagiline 0.8 mg/kg b.w.): 2 (20) N (%)
- Mortality N (%) ([2]; Rasagiline 2.5 mg/kg b.w.): 1 (10) N (%)
- CD11b staining pattern (microglial activation), treated vs untreated mice [3]: No differences
- GFAP staining pattern (astroglial activation), treated vs untreated mice [3]: No differences
- most commonly reported adverse events [4]: pain, headache and dizziness
- side effects typical of other dopaminergic medications (hallucinations, somnolence, edema, nausea, vomiting, diarrhea) [4]: infrequently reported
- MAO-B activity (mean dpm ± SD) ([5]; Rasagiline 0.8 mg/kg): 370.01 ± 321 dpm
- MAO-B activity (mean dpm ± SD) ([5]; Rasagiline 2.5 mg/kg): 80.94 ± 14 dpm
- inhibition of MAO activity (MAO-B) ([5]; both concentrations): significant inhibition
- MAO-A activity (mean dpm ± SD) ([6]; Rasagiline 0.8 mg/kg): 1463.10 ± 219 dpm
- MAO-A activity (mean dpm ± SD) ([6]; Rasagiline 2.5 mg/kg): 724.06 ± 65 dpm
- inhibition of MAO activity (MAO-A) ([6]; both concentrations): significant inhibition
- stride length ([7]; day 18-19): reversed shortened stride length
- stride length ([7]; day 27-28): reversed stride length impairment
- general motor impairment (general motor score) [8]: significant improvement
- open field activity [9]: observed neither upon open field activity
- rearing behavior [9]: nor on rearing behavior
- pole test T-total (prolonged movement time) [10]: significantly reduced
- pole test T-turn (prolonged movement time) [10]: significantly reduced
